Values of other authors, collected in PMC6044708 (ACS Omega, 2016).

Assays:
[1] = system: Gram-positive bacteria; details: comparison in words
[2] = system: S. aureus; details: Gram (+), ATCC strain; reference compound
[3] = system: B. subtilis; details: Gram (+), ATCC strain; reference compound
[4] = system: E. coli; details: Gram (−), ATCC strain; reference compound
[5] = system: P. aeruginosa; details: Gram (−), ATCC strain; reference compound

| MIC S. aureus [2] | MIC B. subtilis [3] | MIC E. coli [4] | MIC P. aeruginosa [5] | Substance | activity compared with Arg10–teixobactin (2) [1] | activity compared with the parent compound teixobactin (1) [1] |
| --- | --- | --- | --- | --- | --- | --- |
| – | – | – | – | Lys10–teixobactin | more active | – |
| 2 µg/mL | 0.5 µg/mL | 64 µg/mL | no activity | Arg10–teixobactin [Arg10–teixobactin (2)] | – | 1 order of magnitude less active |
